According to patent US20260285850A1, “SUBSTITUTED OXAZOLIDINONES AND IMIDAZOLINONES AS HERBICIDES” (FMC CORPORATION, priority 2023, published 2026):

Tests used:
Assay type in all cases: in vivo
[1] = tested on: barnyardgrass (Echinochloa crus-galli); assay: Test A preemergence soil spray, visual injury rating 0-100; settings: 10 days
Summary of the method: (§1)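 Scale 0–100 (no effect to complete control), visual, versus untreated controls, read 10 days after application. Application: preemergence directed spray onto seeded loam–sand soil, or postemergence to young plants; formulation in non-phytotoxic solvent with surfactant.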

[2] = tested on: blackgrass (Alopecurus myosuroides); assay: as above; settings: 10 days
Summary of the method: as §1

corn (Zea mays) [3] = assay: as above; settings: 10 days
Summary of the method: as §1

[4] = tested on: green foxtail (Setaria viridis); assay: as above; settings: 10 days
Summary of the method: as §1

kochia (Bassia scoparia) [5] = assay: as above; settings: 10 days
Summary of the method: as §1

[6] = tested on: oat, wild (wild oat, Avena fatua); assay: as above; settings: 10 days
Summary of the method: as §1

[7] = tested on: palmer (palmer amaranth, palmer pigweed, Amaranthus palmeri); assay: as above; settings: 10 days
Summary of the method: as §1

[8] = tested on: ragweed (common ragweed, Ambrosia artemisiifolia); assay: as above; settings: 10 days
Summary of the method: as §1

[9] = tested on: ryegrass, Italian (italian ryegrass, Lolium multiflorum); assay: as above; settings: 10 days
Summary of the method: as §1

soybean (Glycine max) [10] = assay: as above; settings: 10 days
Summary of the method: as §1

[11] = tested on: wheat (Triticum aestivum); assay: as above; settings: 10 days
Summary of the method: as §1

[12] = tested on: barnyardgrass (Echinochloa crus-galli); assay: Test A postemergence application, visual injury rating 0-100
Summary of the method: as §1

[13] = tested on: blackgrass (Alopecurus myosuroides); assay: as above
Summary of the method: as §1

corn (Zea mays) [14] = assay: as above
Summary of the method: as §1

[15] = tested on: green foxtail (Setaria viridis); assay: as above
Summary of the method: as §1

[16] = tested on: horseweed (Erigeron canadensis); assay: as above
Summary of the method: as §1

kochia (Bassia scoparia) [17] = assay: as above
Summary of the method: as §1

[18] = tested on: oat, wild (wild oat, Avena fatua); assay: as above
Summary of the method: as §1

[19] = tested on: palmer (palmer amaranth, palmer pigweed, Amaranthus palmeri); assay: as above
Summary of the method: as §1

[20] = tested on: ragweed (common ragweed, Ambrosia artemisiifolia); assay: as above
Summary of the method: as §1

[21] = tested on: ryegrass, Italian (italian ryegrass, Lolium multiflorum); assay: as above
Summary of the method: as §1

soybean (Glycine max) [22] = assay: as above
Summary of the method: as §1

[23] = tested on: wheat (Triticum aestivum); assay: as above
Summary of the method: as §1

[24] = tested on: barnyardgrass (Echinochloa crusgalli); assay: Test B flooded paddy test, visual plant response rating 0-100; settings: 250 g ai/ha, Flood, applied to paddy water, evaluated after 13 days
Summary of the method: (§2)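 Each species was raised to two leaves before flooding to a 3 cm depth and dosing the water with compound. Injury was assessed by eye after 13 days under greenhouse conditions.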

[25] = tested on: ducksalad (Heteranthera limosa); assay: as above; settings: 250 g ai/ha, Flood, applied to paddy water, evaluated after 13 days
Summary of the method: as §2

rice (Oryza sativa) = assay: as above; settings: 250 g ai/ha, Flood, applied to paddy water, evaluated after 13 days
Summary of the method: as §2

[26] = tested on: sedge, umbrella (small-flower umbrella sedge, Cyperus difformis); assay: as above; settings: 250 g ai/ha, Flood, applied to paddy water, evaluated after 13 days
Summary of the method: as §2

[27] = 62 g ai/ha, 0 = no effect, 100 = complete control
[28] = 62 g ai/ha, postemergence, 10 days, 0 = no effect, 100 = complete control
[29] = Postemergence, 16 g ai/ha, greenhouse 10 days, 0 no effect, 100 complete control

For `COC(=O)COC(=O)C1=CCC(NC(=O)C2(C)CN(c3cc(Cl)cc(Cl)c3)C(=O)O2)C1` (centres unmarked) [Compound 109], the “Barnyardgrass plant response rating” value ([1]; 16 g ai/ha, 0 to 100 scale) was 0, the “Barnyardgrass plant response rating (0-100)” value [1, 27] was 0 and the “Blackgrass plant response rating” value ([2]; 16 g ai/ha, 0 to 100 scale) was 0. The “Blackgrass plant response rating (0-100)” value [2, 27] was 0, the “Corn plant response rating” value (corn (Zea mays) [3]; 16 g ai/ha, 0 to 100 scale) was 0 and the “Corn plant response rating (0-100)” value (corn (Zea mays) [3]; [27]) was 0. The “Foxtail, Green plant response rating” value ([4]; 16 g ai/ha, 0 to 100 scale) was 0, the “Foxtail, Green plant response rating (0-100)” value [4, 27] was 0 and the “Kochia plant response rating” value (kochia (Bassia scoparia) [5]; 16 g ai/ha, 0 to 100 scale) was 0. The “Kochia plant response rating (0-100)” value (kochia (Bassia scoparia) [5]; [27]) was 0, the “Oat, Wild plant response rating” value ([6]; 16 g ai/ha, 0 to 100 scale) was 0 and the “Oat, Wild plant response rating (0-100)” value [6, 27] was 0. The “Pigweed, Palmer plant response rating” value ([7]; 16 g ai/ha, 0 to 100 scale) was 0, the “Pigweed, Palmer plant response rating (0-100)” value [7, 27] was 0 and the “Ragweed plant response rating” value ([8]; 16 g ai/ha, 0 to 100 scale) was 0. The “Ragweed plant response rating (0-100)” value [8, 27] was 0, the “Ryegrass, Italian plant response rating” value ([9]; 16 g ai/ha, 0 to 100 scale) was 0 and the “Ryegrass, Italian plant response rating (0-100)” value [9, 27] was 0. The “Soybean plant response rating” value (soybean (Glycine max) [10]; 16 g ai/ha, 0 to 100 scale) was 0, the “Soybean plant response rating (0-100)” value (soybean (Glycine max) [10]; [27]) was 0 and the “Wheat plant response rating” value ([11]; 16 g ai/ha, 0 to 100 scale) was 0. The “Wheat plant response rating (0-100)” value [11, 27] was 0, the “Barnyardgrass plant response rating (0-100)” value [12, 28] was 20 and the “Barnyardgrass plant response rating (0 to 100 scale)” value [12, 29] was 0. The “Blackgrass plant response rating (0-100)” value [13, 28] was 30, the “Blackgrass plant response rating (0 to 100 scale)” value [13, 29] was 0 and the “Corn plant response rating (0-100)” value (corn (Zea mays) [14]; [28]) was 0. The “Corn plant response rating (0 to 100 scale)” value (corn (Zea mays) [14]; [29]) was 0, the “Foxtail, Green plant response rating (0-100)” value [15, 28] was 0 and the “Foxtail, Green plant response rating (0 to 100 scale)” value [15, 29] was 0. The “Horseweed plant response rating (0-100)” value [16, 28] was 20, the “Horseweed plant response rating (0 to 100 scale)” value [16, 29] was 0 and the “Kochia plant response rating (0-100)” value (kochia (Bassia scoparia) [17]; [28]) was 0. The “Kochia plant response rating (0 to 100 scale)” value (kochia (Bassia scoparia) [17]; [29]) was 0, the “Oat, Wild plant response rating (0-100)” value [18, 28] was 0 and the “Oat, Wild plant response rating (0 to 100 scale)” value [18, 29] was 0. For the same compound, the “Pigweed, Palmer plant response rating (0-100)” value [19, 28] was 40, the “Pigweed, Palmer plant response rating (0 to 100 scale)” value [19, 29] was 0 and the “Ragweed plant response rating (0-100)” value [20, 28] was 0. For the same compound, the “Ragweed plant response rating (0 to 100 scale)” value [20, 29] was 0, the “Ryegrass, Italian plant response rating (0-100)” value [21, 28] was 0 and the “Ryegrass, Italian plant response rating (0 to 100 scale)” value [21, 29] was 0. The “Soybean plant response rating (0-100)” value (soybean (Glycine max) [22]; [28]) was 0, the “Soybean plant response rating (0 to 100 scale)” value (soybean (Glycine max) [22]; [29]) was 0 and the “Wheat plant response rating (0-100)” value [23, 28] was 0. The “Wheat plant response rating (0 to 100 scale)” value [23, 29] was 0, the “Plant response rating, Barnyardgrass (0 to 100 scale, 0 is no effect and 100 is complete control)” value [24] was 0 and the “Plant response rating, Ducksalad (0 to 100 scale, 0 is no effect and 100 is complete control)” value [25] was 0. For the same compound, the “Plant response rating, Rice (0 to 100 scale, 0 is no effect and 100 is complete control)” value (rice (Oryza sativa)) was 0 and the “Plant response rating, Sedge, Umbrella (0 to 100 scale, 0 is no effect and 100 is complete control)” value [26] was 0.
